Measurements from patent US11312719B2, “9-substituted amino triazolo quinazoline derivatives as adenosine receptor antagonists, pharmaceutical compositions and their use” (Merck Sharp & Dohme Corp., priority 2018, dated 2022).

How the values were obtained:
human A2B receptors = human A2B receptors (Homo sapiens (Human), UniProt P29275); experiment: A2B antagonism in cAMP cell-based assay (LANCE cAMP, HEK293); conditions: HEK293 cells expressing human A2B receptor; for A2B cAMP % Inh. @10000 nM: at 10000 nM
human A2B receptors, sequence (P29275 whole entry): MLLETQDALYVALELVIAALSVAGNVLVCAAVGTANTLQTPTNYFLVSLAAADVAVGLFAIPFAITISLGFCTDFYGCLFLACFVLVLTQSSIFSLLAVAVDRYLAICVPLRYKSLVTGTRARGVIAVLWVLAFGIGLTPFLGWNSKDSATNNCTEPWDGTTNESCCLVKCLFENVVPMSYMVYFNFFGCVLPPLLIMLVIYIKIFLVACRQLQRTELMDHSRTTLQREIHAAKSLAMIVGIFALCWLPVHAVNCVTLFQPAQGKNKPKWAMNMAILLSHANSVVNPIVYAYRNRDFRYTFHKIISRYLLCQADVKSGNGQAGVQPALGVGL
How it was run: (§1)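 HEK293 cells expressing human A2A or A2B, in HBSS/5 mM HEPES/200 nM rolipram, were preincubated with compound (0.5–10,000 nM, 0.25% DMSO) 30 min at 37° C. Adenosine was then added from 300 nM (A2A) or 600 nM (A2B) solution for 30 min.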

human A2A receptors = human A2A receptors (Homo sapiens (Human), UniProt P29274); experiment: A2A antagonism in cAMP cell-based assay (LANCE cAMP, HEK293); conditions: HEK293 cells expressing human A2A receptor
human A2A receptors, sequence (P29274 whole entry): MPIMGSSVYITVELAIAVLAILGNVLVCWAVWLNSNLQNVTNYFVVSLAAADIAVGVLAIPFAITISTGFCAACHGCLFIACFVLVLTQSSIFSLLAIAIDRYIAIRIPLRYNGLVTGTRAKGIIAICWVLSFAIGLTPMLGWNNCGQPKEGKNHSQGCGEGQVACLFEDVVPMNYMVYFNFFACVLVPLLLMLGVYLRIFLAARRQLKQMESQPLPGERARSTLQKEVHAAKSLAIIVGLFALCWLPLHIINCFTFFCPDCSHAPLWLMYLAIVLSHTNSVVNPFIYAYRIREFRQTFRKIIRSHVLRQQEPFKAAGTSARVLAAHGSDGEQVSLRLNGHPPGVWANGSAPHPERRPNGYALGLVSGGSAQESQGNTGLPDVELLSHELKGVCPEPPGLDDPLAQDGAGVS
How it was run: as §1

## Cc1c(N2CC(C)CC(c3nc4c5cc(F)cc(F)c5nc(N)n4n3)C2)cnn1C(C)C(C)O (single isomer, unassigned) [Example 219, (2S,3S or 2R,3R)-3-(4-((3S,5R or 3R,5S)-3-(5-amino-7,9-difluoro-[1,2,4]triazolo[1,5-c]quinazolin-2-yl)-5-methylpiperidin-1-yl)-5-methyl-1H-pyrazol-1-yl)butan-2-ol]
Human A2B receptors
  A2B cAMP % Inh. @10000 nM: 27% Inh.
Human A2A receptors
  IC50: 247 nM

## COc1cc(F)cc2c1nc(N)n1nc(C3CC(C)CN(c4cnn(C(C)C(C)O)c4C)C3)nc21 (single isomer, unassigned) [Example 220, (2S,3S or 2R,3R)-3-(4-((3R,5S or 3S,5R)-3-(5-amino-9-fluoro-7-methoxy-[1,2,4]triazolo[1,5-c]quinazolin-2-yl)-5-methylpiperidin-1-yl)-5-methyl-1H-pyrazol-1-yl)butan-2-ol]
Human A2B receptors
  A2B cAMP % Inh. @10000 nM: 30% Inh.
Human A2A receptors
  IC50: 20.4 nM

## COc1cc(F)cc2c1nc(N)n1nc(C3CC(C)CN(c4cnn(C(C)C(C)O)c4C)C3)nc21 (single isomer, unassigned) [Example 221, (2R,3R or 2S,3S)-3-(4-((3R,5S or 3S,5R)-3-(5-amino-9-fluoro-7-methoxy-[1,2,4]triazolo[1,5-c]quinazolin-2-yl)-5-methylpiperidin-1-yl)-5-methyl-1H-pyrazol-1-yl)butan-2-ol]
Human A2B receptors
  IC50: 63 nM
Human A2A receptors
  IC50: 0.5 nM

## COc1cc(F)cc2c1nc(N)n1nc(C3CC(C)CN(c4cnn(C(C)C(C)O)c4C)C3)nc21 (single isomer, unassigned) [Example 222, (2R,3R or 2S,3S)-3-(4-((3S,5R or 3R,5S)-3-(5-amino-9-fluoro-7-methoxy-[1,2,4]triazolo[1,5-c]quinazolin-2-yl)-5-methylpiperidin-1-yl)-5-methyl-1H-pyrazol-1-yl)butan-2-ol]
Human A2B receptors
  IC50: 3280 nM
Human A2A receptors
  IC50: 34.6 nM

## COc1cc(F)cc2c1nc(N)n1nc(C3CC(C)CN(c4cnn(C(C)C(C)O)c4C)C3)nc21 (single isomer, unassigned) [Example 223, (2S,3S or 2R,3R)-3-(4-((3S,5R or 3R,5S)-3-(5-amino-9-fluoro-7-methoxy-[1,2,4]triazolo[1,5-c]quinazolin-2-yl)-5-methylpiperidin-1-yl)-5-methyl-1H-pyrazol-1-yl)butan-2-ol]
Human A2B receptors
  IC50: 46 nM
Human A2A receptors
  IC50: 0.7 nM

## COc1cc2nc(N)n3nc([C@@H]4CC[C@H](C)N(c5cnn([C@@H](C)[C@H](C)O)c5)C4)nc3c2cc1F (single isomer, unassigned) [Example 228, (2S,3S or 2R,3R)-3-(4-((2S,5R or 2R,5S)-5-(5-amino-9-fluoro-8-methoxy-[1,2,4]triazolo[1,5-c]quinazolin-2-yl)-2-methylpiperidin-1-yl)-1H-pyrazol-1-yl)butan-2-ol]
Human A2B receptors
  IC50: 16.1 nM
Human A2A receptors
  IC50: 0.8 nM

## COc1cc2nc(N)n3nc([C@H]4CC[C@@H](C)N(c5cnn([C@@H](C)[C@H](C)O)c5)C4)nc3c2cc1F (single isomer, unassigned) [Example 229, (2S,3S or 2R,3R)-3-(4-((2R,5S or 2S,5R)-5-(5-amino-9-fluoro-8-methoxy-[1,2,4]triazolo[1,5-c]quinazolin-2-yl)-2-methylpiperidin-1-yl)-1H-pyrazol-1-yl)butan-2-ol]
Human A2B receptors
  IC50: 6.6 nM
Human A2A receptors
  IC50: 1 nM

## COc1cc2nc(N)n3nc([C@H]4CC[C@@H](C)N(c5cnn([C@H](C)[C@@H](C)O)c5)C4)nc3c2cc1F (single isomer, unassigned) [Example 230, (2R,3R or 2S,3S)-3-(4-((2R,5S or 2S,5R)-5-(5-amino-9-fluoro-8-methoxy-[1,2,4]triazolo[1,5-c]quinazolin-2-yl)-2-methylpiperidin-1-yl)-1H-pyrazol-1-yl)butan-2-ol]
Human A2B receptors
  IC50: 724 nM
Human A2A receptors
  IC50: 32.9 nM

## COc1cc2nc(N)n3nc([C@@H]4CC[C@H](C)N(c5cnn([C@H](C)[C@@H](C)O)c5)C4)nc3c2cc1F (single isomer, unassigned) [Example 231, (2R,3R or 2S,3S)-3-(4-((2S,5R or 2R,5S)-5-(5-amino-9-fluoro-8-methoxy-[1,2,4]triazolo[1,5-c]quinazolin-2-yl)-2-methylpiperidin-1-yl)-1H-pyrazol-1-yl)butan-2-ol]
Human A2B receptors
  IC50: 3840 nM
Human A2A receptors
  IC50: 122 nM

## CC(O)C(C)n1cc(N2CC(c3nc4c5cc(F)cc(F)c5nc(N)n4n3)CCC2C)cn1 (single isomer, unassigned) [Example 232, (2S,3S or 2R,3R)-3-(4-((2S,5R or 2R,5S)-5-(5-amino-7,9-difluoro-[1,2,4]triazolo[1,5-c]quinazolin-2-yl)-2-methylpiperidin-1-yl)-1H-pyrazol-1-yl)butan-2-ol]
Human A2B receptors
  IC50: 12.7 nM
Human A2A receptors
  IC50: 1.3 nM

## CC(O)C(C)n1cc(N2CC(c3nc4c5cc(F)cc(F)c5nc(N)n4n3)CCC2C)cn1 (single isomer, unassigned) [Example 233, (2R,3R or 2S,3S)-3-(4-((2S,5R or 2R,5S)-5-(5-amino-7,9-difluoro-[1,2,4]triazolo[1,5-c]quinazolin-2-yl)-2-methylpiperidin-1-yl)-1H-pyrazol-1-yl)butan-2-ol]
Human A2B receptors
  IC50: 5.6 nM
Human A2A receptors
  IC50: 0.7 nM

## CC(O)C(C)n1cc(N2CC(c3nc4c5cc(F)cc(F)c5nc(N)n4n3)CCC2C)cn1 (single isomer, unassigned) [Example 234, (2R,3R or 2S,3S)-3-(4-((2R,5S or 2S,5R)-5-(5-amino-7,9-difluoro-[1,2,4]triazolo[1,5-c]quinazolin-2-yl)-2-methylpiperidin-1-yl)-1H-pyrazol-1-yl)butan-2-ol]
Human A2B receptors
  IC50: 1200 nM
Human A2A receptors
  IC50: 46.8 nM

## CC(O)C(C)n1cc(N2CC(c3nc4c5cc(F)cc(F)c5nc(N)n4n3)CCC2C)cn1 (single isomer, unassigned) [Example 235, (2S,3S or 2R,3R)-3-(4-((2R,5S or 2S,5R)-5-(5-amino-7,9-difluoro-[1,2,4]triazolo[1,5-c]quinazolin-2-yl)-2-methylpiperidin-1-yl)-1H-pyrazol-1-yl)butan-2-ol]
Human A2B receptors
  IC50: 4450 nM
Human A2A receptors
  IC50: 439 nM

## COc1cc2nc(N)n3nc(C4CCC(C)N(c5cnn(C(C)C(C)O)c5)C4)nc3c2cc1F (single isomer, unassigned) [Example 236, (2S,3R or 2R,3S)-3-(4-((2S,5R or 2R,5S)-5-(5-amino-9-fluoro-8-methoxy-[1,2,4]triazolo[1,5-c]quinazolin-2-yl)-2-methylpiperidin-1-yl)-1H-pyrazol-1-yl)butan-2-ol]
Human A2B receptors
  IC50: 5.1 nM
Human A2A receptors
  IC50: 1 nM

## COc1cc2nc(N)n3nc(C4CCC(C)N(c5cnn(C(C)C(C)O)c5)C4)nc3c2cc1F (single isomer, unassigned) [Example 237, (2R,3S or 2S,3R)-3-(4-((2S,5R or 2R,5S)-5-(5-amino-9-fluoro-8-methoxy-[1,2,4]triazolo[1,5-c]quinazolin-2-yl)-2-methylpiperidin-1-yl)-1H-pyrazol-1-yl)butan-2-ol]
Human A2B receptors
  IC50: 8.7 nM
Human A2A receptors
  IC50: 0.8 nM

## COc1cc2nc(N)n3nc(C4CCC(C)N(c5cnn(C(C)C(C)O)c5)C4)nc3c2cc1F (single isomer, unassigned) [Example 238, (2S,3R or 2R,3S)-3-(4-((2R,5S or 2S,5R)-5-(5-amino-9-fluoro-8-methoxy-[1,2,4]triazolo[1,5-c]quinazolin-2-yl)-2-methylpiperidin-1-yl)-1H-pyrazol-1-yl)butan-2-ol]
Human A2B receptors
  IC50: 2440 nM
Human A2A receptors
  IC50: 21.8 nM

## COc1cc2nc(N)n3nc(C4CCC(C)N(c5cnn(C(C)C(C)O)c5)C4)nc3c2cc1F (single isomer, unassigned) [Example 239, (2R,3S or 2S,3R)-3-(4-((2R,5S or 2S,5R)-5-(5-amino-9-fluoro-8-methoxy-[1,2,4]triazolo[1,5-c]quinazolin-2-yl)-2-methylpiperidin-1-yl)-1H-pyrazol-1-yl)butan-2-ol]
Human A2B receptors
  A2B cAMP % Inh. @10000 nM: 10% Inh.
Human A2A receptors
  IC50: 75.1 nM

## COc1cc2nc(N)n3nc([C@@H]4CCCN(c5cnn(C(C)(C)C(C)O)c5)C4)nc3c2cc1F (single isomer, unassigned) [Example 242, (R or S)-3-(4-((R)-3-(5-amino-9-fluoro-8-methoxy-[1,2,4]triazolo[1,5-c]quinazolin-2-yl)piperidin-1-yl)-1H-pyrazol-1-yl)-3-methylbutan-2-ol]
Human A2B receptors
  IC50: 34.9 nM
Human A2A receptors
  IC50: 2 nM

## COc1cc2nc(N)n3nc([C@@H]4CCCN(c5cnn(C(C)(C)C(C)O)c5)C4)nc3c2cc1F (single isomer, unassigned) [Example 243, (S or R)-3-(4-((R)-3-(5-amino-9-fluoro-8-methoxy-[1,2,4]triazolo[1,5-c]quinazolin-2-yl)piperidin-1-yl)-1H-pyrazol-1-yl)-3-methylbutan-2-ol]
Human A2B receptors
  IC50: 50.7 nM
Human A2A receptors
  IC50: 2.6 nM

## COc1cc(F)cc2c1nc(N)n1nc([C@@H]3CCCN(c4cnn(C(C)(C)C(C)O)c4)C3)nc21 (single isomer, unassigned) [Example 244, (R or S)-3-(4-((R)-3-(5-amino-9-fluoro-7 methoxy-[1,2,4]triazolo[1,5-c]quinazolin-2-yl)piperidin-1-yl)-1H-pyrazol-1-yl)-3-methylbutan-2-ol]
Human A2B receptors
  IC50: 18.8 nM
Human A2A receptors
  IC50: 0.9 nM

## COc1cc(F)cc2c1nc(N)n1nc([C@@H]3CCCN(c4cnn(C(C)(C)C(C)O)c4)C3)nc21 (single isomer, unassigned) [Example 245, (S or R)-3-(4-((R)-3-(5-amino-9-fluoro-7 methoxy-[1,2,4]triazolo[1,5-c]quinazolin-2-yl)piperidin-1-yl)-1H-pyrazol-1-yl)-3-methylbutan-2-ol]
Human A2B receptors
  IC50: 25.8 nM
Human A2A receptors
  IC50: 2 nM

## CC(O)C(C)(C)n1cc(N2CCC[C@@H](c3nc4c5cc(F)cc(F)c5nc(N)n4n3)C2)cn1 (single isomer, unassigned) [Example 246, (R or S)-3-(4-((R)-3-(5-amino-7,9-difluoro-[1,2,4]triazolo [1,5-c]quinazolin-2-yl)piperidin-1-yl)-1H-pyrazol-1-yl)-3-methylbutan-2-ol]
Human A2B receptors
  IC50: 21.3 nM
Human A2A receptors
  IC50: 3.2 nM
